Measured values published in US12655173B2, “Hybrid amide derivatives of amphotericin B” (priority 2020, dated 2026).
In brackets after ≈: the same amount, converted by molar mass.

Tests used:
Candida albicans = assay: MIC against yeasts; assay type: cell-based; conditions: 15 isolates, Table 3A
Candida glabrata = assay: MIC against yeasts; assay type: cell-based; conditions: Nakaseomyces glabratus; 5 isolates; Table 3A
Malassezia furfur = assay: MIC against yeasts (Table 3A); assay type: cell-based; conditions: 3 isolates
[1] = In vivo mouse pharmacokinetics (IV, CD-1 mice)
Protocol: Mouse PK (FIG. 2): The experiment was performed using the compounds synthesized in lab and purified by preparative HPLC (>91%). All the compounds were dissolved in D5W (5% dextrose in water) at for IV injection. Female CD-1 mice were (3 per group; body weight approx. 30 g each) injected with the compounds (as per planned dosage) and the blood samples were collected at different time points and the compound content was analysed using the following procedure. • Instrument: Triple Quad 6500+ • Matrix […] CD-1 mouse plasma (EDTA-K2) • Analyte(s): Compound 1 • Internal standard(s): 100 ng/mL Labetalol & 100 ng/mL Tolbutamide in ACN • MS conditions ESI: positive • SRM detection • Compound 1: [M+H]+m/z 979.8>798.4 • Labelatol (IS): [M+H]+m/z 329.2>162.1 • UPLC conditions • Mobile Phase A: 0.1% FA in Water • Mobile Phase B: 0.1% FA in ACN
An aliquot of 90 μL supernatant was transferred to sample plate and mixed with 60 μL water, then the plate was shaken at 800 rpm for 10 min, 15.0 μL supernatant was injected for LC-MS/MS analysis. • Calibration curve: • 1.00-3000 ng/ml, for Compound 1 in female CD-1 mouse plasma (EDTA-K2)

C[C@@H]1[C@H](O)[C@@H](C)/C=C/C=C/C=C/C=C/C=C/C=C/C=C/[C@H](OC2O[C@H](C)[C@@H](O)[C@H](N)[C@@H]2O)C[C@@H]2O[C@](O)(C[C@@H](O)C[C@@H](O)[C@H](O)CC[C@@H](O)C[C@@H](O)CC(=O)O[C@H]1C)C[C@H](O)[C@H]2C(=O)O (stereo partly drawn) [AmB, Amphotericin B]
MIC (Candida albicans): 0.61 µM (≈ 0.564 µg/mL)
MIC (Candida glabrata): 1.4 µM (≈ 1.29 µg/mL)
MIC (Malassezia furfur): > 16 µM

CC1C=CC=CC=CC=CC=CC=CC=CC(OC2OC(C)C(O)C(N)C2O)CC2OC(O)(CC(O)CC(O)C(O)CCC(O)CC(O)CC(=O)OC(C)C(C)C1O)CC(O)C2C(=O)NC(CO)CO (stereo not drawn) [Compound 1]
In vivo PK AUC0-inf (ng*hr/mL) ([1]; 1 mg/kg): 18785] ng*hr/mL
In vivo PK Cl ([1]; 1 mg/kg): 0.891 mL/min/kg
In vivo PK T1/2, ([1]; 1 mg/kg): 8.37 h
In vivo PK AUC0-inf ([1]; 5 mg/kg): 79575 ng·h/mL
In vivo PK Cl ([1]; 5 mg/kg): 1.05 mL/min/kg
In vivo PK T1/2, ([1]; 5 mg/kg): 9.6 h
